From patent US11066409B2, “Bicyclic nitrogen-containing heterocyclic derivatives and pharmaceutical composition comprising the same” (Shionogi & Co., Ltd., priority 2016, dated 2021)

biological target: human P2X7 receptor (Homo sapiens (Human), UniProt Q99572, R270H); assay: Evaluation of a human P2X7 receptor inhibitory activity (Yo-Pro uptake, BzATP stimulation, FLIPR TETRA); assay type: cell-based; conditions: 1321N1 cells stably expressing human P2X7 receptor, Yo-Pro fluorescence
Procedure: Evaluation of a human P2X7 receptor inhibitory activity Stably expressing cell line (1321N1 cell transfected with the human P2X7 receptor gene (GenBank accession number NM_002562.5 including T606C and G952A SNP)) was used. The cells were seeded in a 384-well microtiter plate at a concentration of 8000 cells/well and cultured in the medium (10% fetal bovine serum, 25 mM HEPES, 1% penicillin and streptomycin in DMEM) for one day at 37° C. under 5% carbon dioxide atmosphere. After replacing with 20 μL of the HBSS buffer (20 mM HEPES, 55.6 mM D-glucose, 1× HBSS(−), pH7.4-7.5), 15 μL of 17.3 μM Yo-Pro solution in the HBSS buffer was added. The plate was placed in high-throughput cellular screening system FLIPR TETRA (Molecullar Devices, LLC.) and 15 μL of 130 μM BzATP solution in the HBSS buffer was added. Measurement of fluorescence intensity by FLIPR TETRA was started. After eight minutes, 15 μL of DMSO solutions containing different concentrations of the compound of the present invention as prepared by dilution with the HBSS buffer were dispensed to each well through the built-in automatic dispenser, and the measurement of fluorescence intensity was continued for 20 minutes. The maximum fluorescence intensity without the compound of the present invention is calculated as 0% inhibition and the maximum fluorescence intensity when the reference compound was added is calculated as 100% inhibition. Changing values of fluorescence intensity by the compound of the present invention were calculated by difference between maximum and minimum fluorescence intensity for 20 minutes. Inhibition ratios (%) were calculated from the following equation:
[formula] IC50 was calculated using logistic approximation.
As for IC50 value, value to below 10 nmol/L is represented as “A”, value from 10 nmol/L to below 100 nmol/L is represented as “B”, value from 100 nmol/L to below 500 nmol/L is represented as “C”, and value from 500 nmol/L to below 1 μmol/L is represented as “D”.

human P2X7 receptor, sequence (Q99572 whole entry R270H): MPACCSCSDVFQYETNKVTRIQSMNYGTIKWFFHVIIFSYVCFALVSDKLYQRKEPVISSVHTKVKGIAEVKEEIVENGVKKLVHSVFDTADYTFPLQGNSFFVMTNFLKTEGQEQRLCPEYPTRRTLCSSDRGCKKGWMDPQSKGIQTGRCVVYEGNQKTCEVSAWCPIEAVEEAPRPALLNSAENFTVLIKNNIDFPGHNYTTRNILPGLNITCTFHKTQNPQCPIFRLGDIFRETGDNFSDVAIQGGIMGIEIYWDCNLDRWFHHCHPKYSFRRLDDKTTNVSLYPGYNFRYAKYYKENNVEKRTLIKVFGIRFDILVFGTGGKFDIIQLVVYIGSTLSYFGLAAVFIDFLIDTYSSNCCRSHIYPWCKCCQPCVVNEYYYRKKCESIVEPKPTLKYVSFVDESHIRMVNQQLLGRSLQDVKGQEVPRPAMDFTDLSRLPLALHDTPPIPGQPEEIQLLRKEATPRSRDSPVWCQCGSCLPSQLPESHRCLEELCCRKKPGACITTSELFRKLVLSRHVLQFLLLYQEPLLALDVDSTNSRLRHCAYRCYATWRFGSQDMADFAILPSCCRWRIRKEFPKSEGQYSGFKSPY

| Structure (SMILES) | IC50 [nM] |
| --- | --- |
| Cc1c(Cl)cccc1Nc1nc(=O)cc2n1C(c1ccccc1)COC2 (single isomer, unassigned) [Compound I-0003] | 1.8 |
| O=c1cc2n(c(Nc3cccc4ncccc34)n1)C(c1ccccc1)CO2 (centres unmarked) [Compound I-0001] | 16 |
| Cc1ccccc1Nc1nc(=O)cc2n1C(c1ccccc1)CCC2 (centres unmarked) [Compound I-0004] | 37 |
| COc1c2n(c(Nc3cccc(Cl)c3C)nc1=O)C(c1ccccc1)CCO2 (centres unmarked) [Compound I-0009] | 22 |
| COc1c2n(c(Nc3cc4sc(C)nc4cc3C)nc1=O)C(c1ccccc1)CC2 (centres unmarked) [Compound I-0032] | 16 |
| CCc1nc(OC)ccc1Nc1nc(=O)cc2n1C(c1cc(F)cc(F)c1)CC2 (centres unmarked) [Compound I-0059] | 11 |
| COc1ccc(/N=c2\[nH]c(=O)c(F)c3n2C(c2ccc(F)cc2)CC3)c(C)n1 (centres unmarked) [Compound I-0069] | 10 |

same assay, conditions: 1321N1 cells stably expressing human P2X7 receptor, Yo-Pro fluorescence, class symbols

| Structure (SMILES) | IC50 [nM] |
| --- | --- |
| Cc1c(Cl)cccc1Nc1nc(=O)cc2n1C(c1ccccc1)CO2 (centres unmarked) [Compound I-0002] | < 10 |
| Cc1c(Cl)cccc1Nc1nc(=O)cc2n1C(c1ccccc1)CCC2 (centres unmarked) [Compound I-0005] | 10 to 100 |
| Cc1c(Cl)cccc1Nc1nc(=O)cc2n1C(c1ccccc1)CCO2 (centres unmarked) [Compound I-0006] | 10 to 100 |
| Cc1c(Cl)cccc1Nc1nc(=O)cc2n1C(c1ccccc1)CC2 (centres unmarked) [Compound I-0007] | < 10 |
| Cc1c(Cl)cccc1Nc1nc(=O)cc2n1C(c1cccc(Cl)c1)CC2 (centres unmarked) [Compound I-0008] | < 10 |
| COc1cc(C)c(Nc2nc(=O)cc3n2C(c2ccccc2)CC3)cc1OC (centres unmarked) [Compound I-0010] | < 10 |
| Cc1cc(Nc2nc(=O)cc3n2C(c2ccccc2)CC3)c(C)cc1Cl (centres unmarked) [Compound I-0011] | < 10 |
| Cc1cc(Nc2nc(=O)cc3n2C(c2ccc(F)c(Cl)c2)CC3)c(C)cc1Cl (centres unmarked) [Compound I-0012] | < 10 |
| COc1cc(C)c(Nc2nc(=O)cc3n2C(c2ccc(F)c(Cl)c2)CC3)cc1OC (centres unmarked) [Compound I-0013] | < 10 |
| COc1ccc(Nc2nc(=O)cc3n2C(c2ccccc2)CC3)c(C)c1 (centres unmarked) [Compound I-0014] | < 10 |
| Cc1ccccc1Nc1nc(=O)cc2n1C(c1ccccc1)CC2 (centres unmarked) [Compound I-0015] | 10 to 100 |
| COc1ccc(C)c(Nc2nc(=O)cc3n2C(c2ccccc2)CC3)c1 (centres unmarked) [Compound I-0016] | 10 to 100 |
| COc1cc(C)c(Nc2nc(=O)cc3n2C(c2ccc(F)cc2)CC3)cc1OC (centres unmarked) [Compound I-0017] | 10 to 100 |
| COc1cc(C)c(Nc2nc(=O)cc3n2C(c2cccc(F)c2)CC3)cc1OC (centres unmarked) [Compound I-0018] | 10 to 100 |
| COc1ccc(Nc2nc(=O)cc3n2C(c2ccccc2)CC3)cc1OC (centres unmarked) [Compound I-0019] | < 10 |
| COc1cc(C)c(Nc2nc(=O)cc3n2C(c2ccccc2)CC3)cc1C (centres unmarked) [Compound I-0020] | < 10 |
| COc1cc(C)c(Nc2nc(=O)cc3n2C(c2cc(F)c(F)c(F)c2)CC3)cc1OC (centres unmarked) [Compound I-0021] | 10 to 100 |
| COc1cc(Nc2nc(=O)cc3n2C(c2ccccc2)CC3)c(C)cc1F (centres unmarked) [Compound I-0022] | < 10 |
| COc1ccc(Nc2nc(=O)cc3n2C(c2ccc(F)cc2)CC3)c(C)c1 (centres unmarked) [Compound I-0023] | < 10 |
| COc1cc(C)c(Nc2nc(=O)cc3n2C(c2ccccc2)CC3)cc1F (centres unmarked) [Compound I-0024] | 10 to 100 |
| COc1cc(C)c(Nc2nc(=O)cc3n2C(c2ccc(F)c(F)c2)CC3)cc1OC (centres unmarked) [Compound I-0025] | 10 to 100 |
| Cc1nc2cc(C)c(Nc3nc(=O)cc4n3C(c3ccc(F)cc3)CC4)cc2s1 (centres unmarked) [Compound I-0026] | < 10 |

| Structure (SMILES) | IC50 [nM] |
| --- | --- |
| COc1cc(Nc2nc(=O)cc3n2C(c2ccccc2)CC3)c(C)cc1Cl (centres unmarked) [Compound I-0027] | < 10 |
| COc1cc(C)c(Nc2nc(=O)cc3n2C(c2ccccc2)CC3)cc1Cl (centres unmarked) [Compound I-0028] | < 10 |
| Cc1nc2cc(C)c(Nc3nc(=O)cc4n3[C@H](c3ccccc3)CC4)cc2s1 [Compound I-0029] | < 10 |
| COc1cc(C)c(Nc2nc(=O)cc3n2C(c2ccccc2)CC3)cn1 (centres unmarked) [Compound I-0030] | 100 to 500 |
| COc1cc(C)c(Nc2nc(=O)c(OC)c3n2C(c2ccccc2)CC3)cc1C (centres unmarked) [Compound I-0031] | 10 to 100 |
| COc1cc(Nc2nc(=O)cc3n2C(c2ccc(F)cc2)CC3)c(C)cc1Cl (centres unmarked) [Compound I-0033] | 10 to 100 |
| COc1ccc(Nc2nc(=O)cc3n2C(c2ccccc2)CC3)c(C)n1 (centres unmarked) [Compound I-0034] | 10 to 100 |
| COc1cc(Nc2nc(=O)cc3n2C(c2ccccc2)CC3)c(C)cn1 (centres unmarked) [Compound I-0035] | 100 to 500 |
| COc1c2n(c(Nc3cc4sc(C)nc4cc3C)nc1=O)C(c1ccc(F)cc1)CC2 (centres unmarked) [Compound I-0036] | 10 to 100 |
| COc1ccc(Nc2nc(=O)cc3n2C(c2ccc(F)c(Cl)c2)CC3)c(C)c1 (centres unmarked) [Compound I-0037] | < 10 |
| COc1ccc(Nc2nc(=O)cc3n2C(c2cc(F)cc(F)c2)CC3)c(C)c1 (centres unmarked) [Compound I-0038] | < 10 |
| CCc1cc(Nc2nc(=O)cc3n2C(c2ccccc2)CC3)c(C)cc1OC (centres unmarked) [Compound I-0039] | < 10 |
| Cc1cc2c(cc1Nc1nc(=O)cc3n1C(c1ccccc1)CC3)COC2 (centres unmarked) [Compound I-0040] | 10 to 100 |
| COc1ccc(Nc2nc(=O)cc3n2C(c2ccc(F)c(F)c2)CC3)c(C)c1 (centres unmarked) [Compound I-0041] | < 10 |
| COc1ccc(Nc2nc(=O)cc3n2C(c2cc(F)c(F)c(F)c2)CC3)c(C)c1 (centres unmarked) [Compound I-0042] | < 10 |
| COc1nc(C)c(Nc2nc(=O)cc3n2C(c2ccccc2)CC3)cc1C (centres unmarked) [Compound I-0043] | < 10 |
| COc1cc(Nc2nc(=O)c(OC)c3n2C(c2ccccc2)CC3)c(C)cc1Cl (centres unmarked) [Compound I-0044] | 10 to 100 |
| COc1cc(Nc2nc(=O)c(OC)c3n2C(c2ccccc2)CC3)c(C)cc1F (centres unmarked) [Compound I-0045] | 10 to 100 |
| COc1ccc(Nc2nc(=O)c(F)c3n2C(c2ccccc2)CC3)c(C)c1 (centres unmarked) [Compound I-0046] | 10 to 100 |
| COc1ccc(Nc2nc(=O)cc3n2C(c2cc(F)cc(F)c2)CC3)c(C)n1 (centres unmarked) [Compound I-0047] | 10 to 100 |
| COc1ccc(Nc2nc(=O)cc3n2C(c2cc(F)c(F)c(F)c2)CC3)c(C)n1 (centres unmarked) [Compound I-0048] | 10 to 100 |
| COc1ccc(Nc2nc(=O)cc3n2C(c2cccc(F)c2)CC3)c(C)c1 (centres unmarked) [Compound I-0049] | < 10 |

| Structure (SMILES) | IC50 [nM] |
| --- | --- |
| COc1ccc(Nc2nc(=O)cc3n2C(c2cccc(Cl)c2)CC3)c(C)c1 (centres unmarked) [Compound I-0050] | < 10 |
| COc1nc(C)c(Nc2nc(=O)cc3n2C(c2cc(F)cc(F)c2)CC3)cc1C (centres unmarked) [Compound I-0051] | 10 to 100 |
| COc1ccc(Nc2nc(=O)c(OC)c3n2C(c2ccccc2)CC3)c(C)c1 (centres unmarked) [Compound I-0052] | 10 to 100 |
| Cc1nc2cc(C)c(/N=c3\[nH]c(=O)cc4n3C(c3cc(F)cc(F)c3)CC4)cc2s1 (centres unmarked) [Compound I-0053] | 10 to 100 |
| Cc1nc2cc(C)c(/N=c3\[nH]c(=O)c(F)c4n3C(c3ccc(F)cc3)CC4)cc2s1 (centres unmarked) [Compound I-0054] | < 10 |
| CCOc1ccc(Nc2nc(=O)cc3n2C(c2cc(F)cc(F)c2)CC3)c(C)n1 (centres unmarked) [Compound I-0055] | 10 to 100 |
| Cc1cc(OC(F)F)ccc1/N=c1\[nH]c(=O)cc2n1C(c1cc(F)cc(F)c1)CC2 (centres unmarked) [Compound I-0056] | 10 to 100 |
| Cc1cc(OC(F)F)ccc1/N=c1\[nH]c(=O)c(F)c2n1C(c1ccc(F)cc1F)CC2 (centres unmarked) [Compound I-0057] | 10 to 100 |
| Cc1nc2cc(C)c(Nc3nc(=O)c(F)c4n3C(c3ccc(F)cc3F)CC4)cc2s1 (centres unmarked) [Compound I-0058] | < 10 |
| CCc1nc(OC)ccc1Nc1nc(=O)cc2n1C(c1cc(F)cc(F)c1)CC2 (centres unmarked) [Compound I-0059] | 10 to 100 |
| COc1ccc(C)c(/N=c2\[nH]c(=O)cc3n2C(c2cc(F)cc(F)c2)CC3)c1 (centres unmarked) [Compound I-0061] | 10 to 100 |
| COc1cc(/N=c2\[nH]c(=O)c(F)c3n2C(c2ccc(F)cc2F)CC3)c(C)cc1F (centres unmarked) [Compound I-0062] | 10 to 100 |
| COc1cc(/N=c2\[nH]c(=O)cc3n2C(c2cc(F)cc(F)c2)CC3)c(C)cc1F (centres unmarked) [Compound I-0063] | 10 to 100 |
| COc1ccc(Nc2nc(=O)c(F)c3n2C(c2ccc(F)cc2F)CC3)c(C)c1 (centres unmarked) [Compound I-0064] | 10 to 100 |
| Cc1cc(OC(F)F)c(C)cc1/N=c1\[nH]c(=O)cc2n1C(c1ccccc1)CC2 (centres unmarked) [Compound I-0065] | < 10 |
| Cc1cc2c(cc1Nc1nc(=O)cc3n1C(c1cc(F)cc(F)c1)CC3)COC2 (centres unmarked) [Compound I-0066] | < 10 |
| Cc1cc2c(cc1Nc1nc(=O)cc3n1C(c1ccc(F)cc1)CC3)COC2 (centres unmarked) [Compound I-0067] | < 10 |
| COc1ccc(/N=c2\[nH]c(=O)c(F)c3n2C(c2ccc(F)cc2F)CC3)c(C)n1 (centres unmarked) [Compound I-0068] | 10 to 100 |
| COc1ccc(/N=c2\[nH]c(=O)cc3n2C(c2ccc(F)cc2)CC3)c(C)n1 (centres unmarked) [Compound I-0070] | 10 to 100 |
| COc1cnc(C)c(Nc2nc(=O)cc3n2C(c2cc(F)cc(F)c2)CC3)c1 (centres unmarked) [Compound I-0071] | 10 to 100 |
